Reference: ChEMBL document CHEMBL5370568, “Discovery of Coixol Derivatives as Potent Anti-inflammatory Agents” (J Nat Prod, 2023)
The source made the active and inactive calls. The calls are words filed in the database; no cut-off is given here.

Assays:
RAW264.7 [1] = test: Antiinflammatory activity in LPS-induced mouse RAW264.7 cells assessed as inhibition of NO production at 20 uM pretreated for 1 hr followed by LPS stimulation and measured after 24 hrs by griess reagent based assay relative to control; type: functional; details: time 25 hrs
[2] = Cytotoxicity against mouse RAW264.7 cells incubated for 24 hrs by MTT assay; type: toxicity, cell-based
[3] = Inhibition of IL-1beta production in LPS-induced mouse RAW264.7 cells pretreated for 1 hr followed by LPS stimulation and measured after 24 hrs by ELISA; type: functional, cell-based
Mus musculus [4] = test: Antiinflammatory activity in ICR mouse model of xylene-induced auricle edema assessed as average weight of right ear at 20 mg/kg, IG pretreated for 1 hr followed by xylene addition and measured after 1 hr (reference value: 11.5 +/- 2.1 mg); type: functional; details: time 2 hrs
[5] = Inhibition of TNF-alpha production in LPS-induced mouse RAW264.7 cells incubated for 24 hrs in presence of LPS by ELISA; type: functional, cell-based; details: RAW264.7, 24 h
[6] = Inhibition of IL-6 production in LPS-induced mouse RAW264.7 cells pretreated for 1 hr followed by LPS stimulation and measured after 24 hrs by ELISA; type: functional, cell-based
RAW264.7 [7] = test: Antiinflammatory activity in LPS-induced mouse RAW264.7 cells assessed as inhibition of NO production pretreated for 1 hr followed by LPS stimulation and measured after 24 hrs by griess reagent based assay; type: functional, cell-based
Mus musculus [8] = test: Antiinflammatory activity in ICR mouse model of xylene-induced auricle edema assessed as swelling degree at 20 mg/kg, IG pretreated for 1 hr followed by xylene addition and measured after 1 hr (reference value: 4.6 +/- 2 mg); type: functional; details: time 2 hrs
RAW264.7 [9] = test: Antiinflammatory activity in LPS-induced mouse RAW264.7 cells assessed as inhibition of NO production incubated for 24 hrs in presence of LPS by griess reagent based assay; type: functional, cell-based; details: RAW264.7, 24 h
Mus musculus [10] = test: Antiinflammatory activity in ICR mouse model of xylene-induced ear edema assessed as edema inhibition rate at 25 mg/kg, po pretreated for 1 hr followed by xylene addition and measured after 0.5 hr relative to control; type: functional; details: time 1.5 hrs
[11] = Inhibition of IL-1beta production in LPS-induced mouse RAW264.7 cells incubated for 24 hrs in presence of LPS by ELISA; type: functional, cell-based; details: RAW264.7, 24 h
Mus musculus [12] = test: Antiinflammatory activity in ICR mouse model of xylene-induced auricle edema assessed as inhibition rate of ear swelling at 20 mg/kg, IG pretreated for 1 hr followed by xylene addition and measured after 1 hr relative to control; type: functional; details: po, time 2 hrs
[13] = Inhibition of TNF-alpha production in LPS-induced mouse RAW264.7 cells pretreated for 1 hr followed by LPS stimulation and measured after 24 hrs by ELISA; type: functional, cell-based
[14] = Inhibition of IL-6 production in LPS-induced mouse RAW264.7 cells incubated for 24 hrs in presence of LPS by ELISA; type: functional, cell-based; details: RAW264.7, 24 h
Mus musculus [15] = test: Antiinflammatory activity in ICR mouse model of xylene-induced auricle edema assessed as average weight of left ear at 20 mg/kg, IG pretreated for 1 hr followed by xylene addition and measured after 1 hr (reference value: 6.9 +/- 0.7 mg); type: functional; details: time 2 hrs
RAW264.7 [16] = test: Inhibition of NFkappaB signaling pathway in LPS-induced mouse RAW264.7 cells assessed as reduction in IkappaBalpha phosphorylation pretreated for 2 hrs followed by LPS stimulation and measured after 10 mins by Western blot analysis; type: cell-based; details: dose 0.5-2 µM, time 130.0 min
Mus musculus [17] = test: Antiinflammatory activity in ICR mouse model of xylene-induced auricle edema assessed as inhibition rate of ear swelling at 40 mg/kg, IG pretreated for 1 hr followed by xylene addition and measured after 1 hr relative to control; type: functional; details: po, time 2 hrs
Mus musculus [18] = test: Antiinflammatory activity in ICR mouse model of xylene-induced auricle edema assessed as average weight of right ear at 40 mg/kg, IG pretreated for 1 hr followed by xylene addition and measured after 1 hr (reference value: 11.5 +/- 2.1 mg); type: functional; details: time 2 hrs
RAW264.7 [19] = test: Antiinflammatory activity in LPS-induced mouse RAW264.7 cells assessed as inhibition of NO production by measuring downregulation of iNOS protein expression at 2 to 8 uM pretreated for 2 hr followed by LPS stimulation and measured after 24 hrs by Western blot analysis; type: functional, cell-based; details: dose 2-8 µM, time 26.0 hrs
Mus musculus [20] = test: Antiinflammatory activity in ICR mouse model of xylene-induced auricle edema assessed as average weight of left ear at 40 mg/kg, IG pretreated for 1 hr followed by xylene addition and measured after 1 hr (reference value: 6.9 +/- 0.7 mg); type: functional; details: time 2 hrs
HEK-293T = test: Inhibition of NO production in HEK293T cells expressing iNOS assessed as effect on iNOS dimerization at 0.1 to 10 uM measured after 24 hrs by griess reagent based assay; type: functional, cell-based; details: Homo sapiens, dose 0.1-10 µM
Mus musculus [21] = test: Antiinflammatory activity in ICR mouse model of xylene-induced auricle edema assessed as swelling degree at 40 mg/kg, IG pretreated for 1 hr followed by xylene addition and measured after 1 hr (reference value: 4.6 +/- 2 mg); type: functional; details: time 2 hrs
RAW264.7 [22] = test: Antiinflammatory activity in LPS-induced mouse RAW264.7 cells assessed as inhibition of NO production by measuring downregulation of iNOS protein expression at 0.5 to 10 uM pretreated for 2 hr followed by LPS stimulation and measured after 24 hrs by Western blot analysis; type: functional, cell-based; details: dose 0.5-10 µM, time 26.0 hrs

| Compound | inhibition at 20 µM (RAW264.7 [1]) | IC50 at 24 h [2] | further results |
| --- | --- | --- | --- |
| COc1cccc(/C=C/C(=O)NCCn2c(=O)oc3cc(OC)ccc32)c1 | 9.3% | > 100 µM | – |
| COc1ccc2c(c1)oc(=O)n2CCNC(=O)/C=C/c1ccc(C)o1 | 43.2% | > 100 µM | – |
| O=C(/C=C/c1ccco1)NCCn1c(=O)oc2ccccc21 | 63.2% | > 100 µM | – |
| COc1ccc2c(c1)oc(=O)n2CCNC(=O)/C=C/c1ccccc1OC | 6.4% | 80.2 µM | – |
| COc1ccc2c(c1)oc(=O)n2CCNC(=O)/C=C/c1ccc(O)c(OC)c1 | 7.2% | > 100 µM | – |
| COc1ccc2c(c1)oc(=O)n2CCNC(=O)/C=C/c1ccc(C(F)(F)F)cc1 | 42% | 69.5 µM | – |
| COc1ccc2c(c1)oc(=O)n2CCNC(=O)/C=C/c1ccccc1Cl | 10.7% | > 100 µM | – |
| COc1ccc2c(c1)oc(=O)n2CCNC(=O)/C=C/c1ccc(OC)c(OC)c1 | 8.9% | > 100 µM | – |
| COc1ccc2c(c1)oc(=O)n2CCNC(=O)/C=C/c1cccs1 | 36.1% | > 100 µM | – |
| Cc1ccc(-c2cc(C(F)(F)F)nn2-c2ccc(S(N)(=O)=O)cc2)cc1 [CELECOXIB] | 62.4% | – | IC50 [3]: 14.6 µM; Activity (Mus musculus [4]): 11.6 mg; IC50 [5]: 41.2 µM; IC50 [6]: 13.7 µM; IC50 (RAW264.7 [7]): 21.1 µM; Activity (Mus musculus [8]): 3.4 mg; IC50 (RAW264.7 [9]): 17.9 µM; inhibition in vivo at 25 mg/kg (Mus musculus [10]): 30.9%; IC50 [11]: 17.9 µM; inhibition in vivo at 20 mg/kg (Mus musculus [12]): 27.4%; IC50 [13]: 12.2 µM; IC50 [14]: 36 µM; Activity (Mus musculus [15]): 8.3 mg |
| COc1ccc2oc(=O)n(CCNC(=O)/C=C/c3ccco3)c2c1 | 56.2% | > 100 µM | – |
| COc1ccc(C(C)=O)c(OCCNC(=O)/C=C/c2cc(OC)c(OC)c(OC)c2)c1 | 88.8% | – | – |
| COc1ccc2c(c1)oc(=O)n2CCNC(=O)/C=C/c1cccc(Cl)c1 | 5.2% | > 100 µM | – |
| COc1ccc2c(c1)oc(=O)n2CCNC(=O)/C=C/c1ccc([N+](=O)[O-])o1 | 105% | 38.8 µM | inhibition (RAW264.7 [16]): Dose-Dependent Effect; inhibition in vivo at 40 mg/kg (Mus musculus [17]): 56.6%; IC50 [3]: 11.8 µM; Activity (Mus musculus [4]): 9.7 mg; Activity (Mus musculus [18]): 10.5 mg; Activity (RAW264.7 [19]): Active; IC50 [6]: 10.3 µM; Activity (Mus musculus [20]): 8.5 mg; IC50 (RAW264.7 [7]): 0.8 µM; Activity (Mus musculus [8]): 2.4 mg; inhibition in vivo at 20 mg/kg (Mus musculus [12]): 47.1%; IC50 [13]: 10.9 µM; Activity (Mus musculus [15]): 7.2 mg; inhibition (HEK-293T): inactive; Activity (Mus musculus [21]): 2 mg |
| COc1ccc2c(c1)oc(=O)n2CCNC(=O)/C=C/c1ccc(O)cc1 | 45.4% | 59 µM | – |
| COc1ccc2c(c1)oc(=O)n2CCNC(=O)/C=C/c1ccccn1 | 42.8% | > 100 µM | – |
| COc1ccc2c(c1)oc(=O)n2CCNC(=O)/C=C/c1ccc(Cl)cc1 | 38.3% | > 100 µM | – |
| COc1ccc2c(c1)oc(=O)n2CCNC(=O)/C=C/c1ccco1 | 88.4% | > 100 µM | inhibition in vivo at 40 mg/kg (Mus musculus [17]): 35.3%; IC50 [3]: 11.6 µM; Activity (Mus musculus [4]): 12.7 mg; Activity (Mus musculus [18]): 11 mg; Activity (RAW264.7 [22]): Active; IC50 [6]: 8.8 µM; Activity (Mus musculus [20]): 8.1 mg; IC50 (RAW264.7 [7]): 2.4 µM; Activity (Mus musculus [8]): 3.2 mg; inhibition in vivo at 20 mg/kg (Mus musculus [12]): 30.9%; IC50 [13]: 7.5 µM; Activity (Mus musculus [15]): 9.5 mg; inhibition (HEK-293T): inactive; Activity (Mus musculus [21]): 3 mg |
| COc1ccc2c(c1)oc(=O)n2CCNC(=O)/C=C/c1ccc(Br)o1 | 25.8% | > 100 µM | – |
| COc1ccc2c(c1)oc(=O)n2CCNC(=O)/C=C/c1ccoc1 | 30.3% | > 100 µM | – |
| O=C(/C=C/c1ccco1)NCCn1c(=O)oc2cc(Br)ccc21 | 75.3% | 68.9 µM | – |
| COc1ccc2c(c1)oc(=O)n2CCNC(=O)/C=C/c1ccc(C)cc1 | 30.2% | > 100 µM | – |
| COc1ccc2c(c1)oc(=O)n2CCNC(=O)/C=C/c1cc2ccccc2o1 | 35.1% | > 100 µM | – |
| COc1ccc2c(c1)oc(=O)n2CCNC(=O)/C=C/c1ccc(F)cc1 | 4.4% | > 100 µM | – |
| COc1ccc(/C=C/C(=O)NCCn2c(=O)oc3cc(OC)ccc32)cc1 | 45.9% | 68.8 µM | – |
| COc1ccc2c(c1)oc(=O)n2CCNC(=O)/C=C/c1cc(OC)c(OC)c(OC)c1 | 51.1% | > 100 µM | IC50 (RAW264.7 [7]): 26 µM |
| COc1ccc2c(c1)oc(=O)n2CCNC(=O)/C=C/c1ccccc1 | 30.2% | > 100 µM | – |
| COc1ccc2[nH]c(=O)oc2c1 [COIXOL] | 7.4% | > 100 µM | IC50 [3]: 66.4 µM; IC50 [6]: 48.9 µM; IC50 [13]: 31.2 µM |
| COc1ccc2c(c1)oc(=O)n2CCNC(=O)c1ccco1 | 29.4% | > 100 µM | – |
